Data published in paper PMC6981581, “N-(2-Arylmethylthio-4-Chloro-5-Methylbenzenesulfonyl)amide Derivatives as Potential Antimicrobial Agents—Synthesis and Biological Studies” (International Journal of Molecular Sciences, 2019).
Values after ≈ are worked out from the molar mass of the structure shown. Read-outs that look alike come from different tables or passages of the source.

Columns and labels:
MRSA 52 biofilm = test: Biofilm inhibition assay (crystal violet); assay type: cell-based, Staphylococcus aureus; details: MRSA 52, 4 × MIC
Method: (§1) For many decades, S. aureus has been identified as the most common etiologic agent of device related infections, associated with biofilm formation. These infections are hard to cure because the specific structure of biofilm confers resistance to the host immune response and to the action of antibiotics.
(§2) Then, 100 µL bacterial suspension prepared from fresh overnight culture by diluting with TSB to obtain the initial inoculum 2 × 10^6 CFU/mL was added. The plates were incubated for 24 h at 37 °C. After the incubation, the wells were discarded and were gently rinsed three times with PBS to remove planktonic staphylococcal cells. Then, contents of the wells were discarded and the biofilm was fixed with 200 µL methanol for 20 min and dried at room temperature for 30 min. The biofilm was stained by adding 200 µL 1.8% crystal violet solution for 15 min. After staining, the plates were rinsed with water and 200 µL bleaching solution (30% ethanol, 30% glacial acetic acid, 40% water) added for 15 min to dissolve the remaining crystal violet. A microplater reader was used to measure the absorbance of the adherent biofilm at 570 nm (OD570). […] The negative control included only the growth medium.

MSSA 58 biofilm = test: Biofilm inhibition assay (crystal violet); assay type: cell-based, Staphylococcus aureus
Method: as §1, §2

MSSA 59 biofilm = test: Biofilm inhibition assay (crystal violet); assay type: cell-based, Staphylococcus aureus; details: MSSA 59, 4 × MIC
Method: as §1, §2

MRSA 51 biofilm = test: Biofilm inhibition assay (crystal violet); assay type: cell-based, Staphylococcus aureus; details: MRSA 51, 4 × MIC
Method: as §1, §2

[1] = tested on: Gram-positive reference strains; test: Broth dilution MIC/MBC, summary over Gram-positive reference strains; assay type: cell-based; details: summary over the Gram-positive reference strains (Table 1)
Method: […]. The tests were carried out using a serial dilution method, allowing the determination of MIC (minimal concentration inhibiting bacterial growth), MBC (minimal bactericidal concentration), and MFC (minimal fungicidal concentration) values.
Antimicrobial activity was tested using the following reference strains: Staphylococcus aureus ATCC 6538 (MSSA), Staphylococcus aureus ATCC 43300 (MRSA), Staphylococcus epidermidis PCM 2118, Escherichia coli ATCC 11229, Pseudomonas aeruginosa ATCC 15442, Proteus vulgaris NCTC 4635, Enterococcus faecalis ATCC 11420, and Candida albicans ATCC 10231.
(§3) A broth dilution method was used to determine minimal inhibitory concentration (MIC) for tested compounds as recommended by Clinical Laboratory Standards Institute (CLSI) guidelines. Investigated compounds were diluted in Mueller Hinton Broth 2 (Sigma-Aldrich Co., St. Louis, MO, USA) in polypropylene 96-well plates and initial inoculum 5 × 10^5 cfu/mL were incubated at 37 °C for 18 h. MIC was taken as the lowest drug concentration at which an observable growth was inhibited. […] The loopful (10 µL) of the tested sample was transferred to Tryptic Soy Agar (TSA, Becton-Dickinson, Franklin Lakes, NJ, USA) and incubated at 37 °C for 48 h. […] Drug Solutions were made fresh on the day of the assay. All experiments were performed in triplicate.

S.aureus 57 (MSSA) = test: Broth dilution MIC/MBC, clinical MSSA isolate; assay type: cell-based; details: Staphylococcus aureus, clinical MSSA S.aureus 57
Source text: (§4) […]. Both MRSA and MSSA strains were derived from various human infections.
(§5) […]. Five methicillin-resistant S. aureus strains were isolated from nose (n = 1), bronchoalveolar lavage (n = 1), sputum (n = 1), wound (n = 1), and blood (n = 1); five methicillin-susceptible S. aureus strains were isolated from throat (n = 1), bronchoalveolar lavage (n = 1), sputum (n = 1), abscess (n = 1), and blood (n = 1).
(§6) The identity of S. aureus isolates was confirmed with conventional methods and with Pastorex Staph-Plus latex agglutination kit (Bio-Rad, Marnes-la-Coquette, France) and verified applying the polymerase chain reaction (PCR) of S. aureus-specific region of the thermonuclease gene, nuc. Resistance to methicillin was first verified using cefoxitin disk (30 µg), and then, identified based on the presence of mecA gene. S. aureus ATCC®25923 (methicillin-susceptible) and S. aureus ATCC®43300 (MDR) were applied as the reference strains. Both the reference and clinical strains were stored at −80 °C, in Tryptic Soy Broth (TSB, Becton-Dickinson, Franklin Lakes, NJ, USA) supplemented with 15% glycerol.
as §3

S.aureus 59 (MSSA) = test: Broth dilution MIC/MBC, clinical MSSA isolate; assay type: cell-based; details: Staphylococcus aureus, clinical MSSA S.aureus 59
Source text: as §4, §5, §6, §3

S.aureus 55 (MSSA) = test: Broth dilution MIC/MBC, clinical MSSA isolate; assay type: cell-based; details: Staphylococcus aureus, clinical MSSA S.aureus 55
Source text: as §4, §5, §6, §3

S.aureus 56 (MSSA) = test: Broth dilution MIC/MBC, clinical MSSA isolate; assay type: cell-based; details: Staphylococcus aureus, clinical MSSA S.aureus 56
Source text: as §4, §5, §6, §3

S.aureus 58 (MSSA) = test: Broth dilution MIC/MBC, clinical MSSA isolate; assay type: cell-based; details: Staphylococcus aureus, clinical MSSA S.aureus 58
Source text: as §4, §5, §6, §3

S.aureus 53 (MRSA) = test: Broth dilution MIC/MBC, clinical MRSA isolate; assay type: cell-based; details: Staphylococcus aureus, clinical MRSA S.aureus 53
Source text: as §4, §5, §6, §3

S.aureus 54 (MRSA) = test: Broth dilution MIC/MBC, clinical MRSA isolate; assay type: cell-based; details: Staphylococcus aureus, clinical MRSA S.aureus 54
Source text: as §4, §5, §6, §3

S.aureus 52 (MRSA) = test: Broth dilution MIC/MBC, clinical MRSA isolate; assay type: cell-based; details: Staphylococcus aureus, clinical MRSA S.aureus 52
Source text: as §4, §5, §6, §3

S.aureus 51 (MRSA) = test: Broth dilution MIC/MBC, clinical MRSA isolate; assay type: cell-based; details: Staphylococcus aureus, clinical MRSA S.aureus 51
Source text: as §4, §5, §6, §3

S.aureus 50 (MRSA) = test: Broth dilution MIC/MBC, clinical MRSA isolate; assay type: cell-based; details: Staphylococcus aureus, clinical MRSA S.aureus 50
Source text: as §4, §5, §6, §3

MIC [1]: 8 µg/mL (≈ 15 µM) | MIC ([1]; read-out: MIC): 8 µg/mL (≈ 15 µM) | MIC (S.aureus 57 (MSSA); read-out: MIC): 4 µg/mL (≈ 7.49 µM) | MIC (S.aureus 59 (MSSA); read-out: MIC): 4 µg/mL (≈ 7.49 µM) | MIC (S.aureus 55 (MSSA); read-out: MIC): 4 µg/mL (≈ 7.49 µM) | MIC (S.aureus 56 (MSSA); read-out: MIC): 4 µg/mL (≈ 7.49 µM) | MIC (S.aureus 58 (MSSA); read-out: MIC): 4 µg/mL (≈ 7.49 µM) | MIC (S.aureus 53 (MRSA); read-out: MIC): 4 µg/mL (≈ 7.49 µM) | MIC (S.aureus 54 (MRSA); read-out: MIC): 4 µg/mL (≈ 7.49 µM) | MIC (S.aureus 52 (MRSA); read-out: MIC): 4 µg/mL (≈ 7.49 µM) | MIC (S.aureus 51 (MRSA); read-out: MIC): 4 µg/mL (≈ 7.49 µM) | MIC (S.aureus 50 (MRSA); read-out: MIC): 4 µg/mL (≈ 7.49 µM)
Structure (SMILES): Cc1cc(S(=O)(=O)NC(=O)CCC2CCCCC2)c(SCc2cccc(C(F)(F)F)c2)cc1Cl [Compound 10, N-[4-Chloro-5-methyl-2-(3-trifluoromethylbenzylthio)benzenesulfonyl]-3-cyclohexylpropanamide]
inhibition of biofilm formation (MRSA 52 biofilm): 88–89% | inhibition of biofilm formation (MSSA 58 biofilm; MSSA 58, concentration equal to the MIC): about 91% | inhibition of biofilm formation (MSSA 58 biofilm; MSSA 58, ½ MIC (2 μg/mL)): 67% | inhibition of biofilm formation (MSSA 59 biofilm): 91% | inhibition of biofilm formation (MRSA 51 biofilm): 88–89% | MBC [1]: 8 to 64 µg/mL | MBC ([1]; read-out: MBC): 8 to 64 µg/mL (≈ 15 to 120 µM) | MBC (S.aureus 57 (MSSA); read-out: MBC): > 128 µg/mL | MBC (S.aureus 59 (MSSA); read-out: MBC): > 128 µg/mL | MBC (S.aureus 55 (MSSA); read-out: MBC): > 128 µg/mL | MBC (S.aureus 56 (MSSA); read-out: MBC): > 128 µg/mL | MBC (S.aureus 58 (MSSA); read-out: MBC): > 128 µg/mL | MBC (S.aureus 53 (MRSA); read-out: MBC): > 128 µg/mL | MBC (S.aureus 54 (MRSA); read-out: MBC): > 128 µg/mL | MBC (S.aureus 52 (MRSA); read-out: MBC): > 128 µg/mL | MBC (S.aureus 51 (MRSA); read-out: MBC): > 128 µg/mL | MBC (S.aureus 50 (MRSA); read-out: MBC): > 128 µg/mL
